# In patent US10076519B2 (CYTOKINETICS, INC., priority 2010, dated 2018):
# Tested on: rabbit skeletal myofibrils (fast skeletal myofibrils)
# Test: Activation of fast skeletal myofibrils (PUMA assay, PK/LDH-coupled ATPase at pCa25)
# Format: biochemical
# Conditions: AC1.4 determined according to the procedure of Example 39; reported as class symbols
# Method in brief: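 Detergent-washed rabbit psoas myofibrils (~90% fast fibres, calcium-regulated) assayed at calcium giving 25% of maximal ATPase rate (pCa25). ADP turnover coupled via pyruvate kinase/lactate dehydrogenase to NADH oxidation, read at 340 nm. Buffer 12 mM PIPES, 2 mM MgCl2, 1 mM DTT, pH 6.8; AC1.4 values derived.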
row,Structure (SMILES),Mean AC1.4
1,CC(C)Nc1n[nH]c2ccc(-c3ccc(NCC(C)(C)c4ccc(F)cc4)nn3)cc12 [[2-(4-fluorophenyl)-2-methylpropyl](6-{3-[(methylethyl)amino](1H-indazol-5-yl)}pyridazin-3-yl)amine],A (A=<1 uM)
2,COc1ncccc1-c1ccc(NCC(C)(C)c2ccc(F)cc2)nn1 [[2-(4-fluorophenyl)-2-methylpropyl][6-(2-methoxy(3-pyridyl))pyridazin-3-yl]amine],A (A=<1 uM)
3,COc1ncc(-c2ccc(NCC(C)(C)c3ccc(F)cc3)nn2)cn1 [[2-(4-fluorophenyl)-2-methylpropyl][6-(2-methoxypyrimidin-5-yl)pyridazin-3-yl]amine],C (C=10-20 uM)
4,CC(C)=Cc1ccc(NCC(C)(C)c2ccc(F)cc2)nn1 [[2-(4-fluorophenyl)-2-methylpropyl][6-(2-methylprop-1-enyl)pyridazin-3-yl]amine],B (B=1-10 uM)
5,CC(C)Cc1ccc(NCC(C)(C)c2ccc(F)cc2)nn1 [[2-(4-fluorophenyl)-2-methylpropyl][6-(2-methylpropyl)pyridazin-3-yl]amine],B (B=1-10 uM)
6,C=Cc1n[nH]c2ccc(-c3ccc(NCC(C)(C)c4ccc(F)cc4)nn3)cc12 [[2-(4-fluorophenyl)-2-methylpropyl][6-(3-vinyl(1H-indazol-5-yl))pyridazin-3-yl]amine],A (A=<1 uM)
7,COc1ccc(-c2ccc(NCC(C)(C)c3ccc(F)cc3)nn2)nc1 [[2-(4-fluorophenyl)-2-methylpropyl][6-(5-methoxy(2-pyridyl))pyridazin-3-yl]amine],B (B=1-10 uM)
8,CNc1n[nH]c2ccc(-c3ccc(NCC(C)(C)c4ccc(F)cc4)nn3)cc12 [[2-(4-fluorophenyl)-2-methylpropyl]{6-[3-(methylamino)(1H-indazol-5-yl)]pyridazin-3-yl}amine],B (B=1-10 uM)
9,CC(C)(CNc1ccc(-c2cccc(C(=O)NCCNC(=O)c3cccc(-c4ccc(NCC(C)(C)c5ccc(F)cc5)nn4)c3)c2)nn1)c1ccc(F)cc1 [[3-(6-{[2-(4-fluorophenyl)-2-methylpropyl]amino}pyridazin-3-yl)phenyl]-N-(2-{[3-(6-{[2-(4-fluorophenyl)-2-methylpropyl]amino}pyridazin-3-yl)phenyl]carbonylamino}eth-yl)carboxamide],B (B=1-10 uM)
10,"CN(C)C(=O)n1nc(N)c2cc(-c3ccc(NCC(C)(C)c4ccc(F)cc4)nn3)ccc21 [[3-amino-5-(6-{[2-(4-fluorophenyl)-2-methylpropyl]amino}pyridazin-3-yl)(1H-indazolyl)]-N,N-dimethylcarboxamide]",B (B=1-10 uM)
11,CC(C)(CNc1ccc(-c2ccc3[nH]nc(NS(C)(=O)=O)c3c2)nn1)c1ccc(F)cc1 [[5-(6-{[2-(4-fluorophenyl)-2-methylpropyl]amino}pyridazin-3-yl)(1H-indazol-3-yl)](methylsulfonyl)amine],A (A=<1 uM)

# The remaining lines, values ahead:
row,Mean AC1.4,Structure (SMILES)
1,B (B=1-10 uM),Cn1ncc2ccc(-c3ccc(NCC(C)(C)c4ccc(F)cc4)nn3)cc21 [[2-(4-fluorophenyl)-2-methylpropyl][6-(1-methyl(1H-indazol-6-yl))pyridazin-3-yl]amine]
2,A (A=<1 uM),CC(C)(CNc1ccc(-c2ccccc2F)nn1)c1ccc(F)cc1 [[2-(4-fluorophenyl)-2-methylpropyl][6-(2-fluorophenyl)pyridazin-3-yl]amine]
3,B (B=1-10 uM),Cc1nc2cc(-c3ccc(NCC(C)(C)c4ccc(F)cc4)nn3)ccc2[nH]1 [[2-(4-fluorophenyl)-2-methylpropyl][6-(2-methylbenzimidazol-5-yl)pyridazin-3-yl]amine]
4,B (B=1-10 uM),Cc1nc2cc(-c3ccc(NCC(C)(C)c4ccc(F)cc4)nn3)ccc2o1 [[2-(4-fluorophenyl)-2-methylpropyl][6-(2-methylbenzoxazol-5-yl)pyridazin-3-yl]amine]
5,B (B=1-10 uM),Cc1nc2ccc(-c3ccc(NCC(C)(C)c4ccc(F)cc4)nn3)cc2o1 [[2-(4-fluorophenyl)-2-methylpropyl][6-(2-methylbenzoxazol-6-yl)pyridazin-3-yl]amine]
6,A (A=<1 uM),CC(C)(CNc1ccc(-c2cccc(F)c2)nn1)c1ccc(F)cc1 [[2-(4-fluorophenyl)-2-methylpropyl][6-(3-fluorophenyl)pyridazin-3-yl]amine]
7,B (B=1-10 uM),CC(C)(CNc1ccc(-c2ccc3[nH]nc(I)c3c2)nn1)c1ccc(F)cc1 [[2-(4-fluorophenyl)-2-methylpropyl][6-(3-iodo(1H-indazol-5-yl))pyridazin-3-yl]amine]
8,B (B=1-10 uM),Cc1n[nH]c2cc(-c3ccc(NCC(C)(C)c4ccc(F)cc4)nn3)ccc12 [[2-(4-fluorophenyl)-2-methylpropyl][6-(3-methyl(1H-indazol-6-yl))pyridazin-3-yl]amine]
9,B (B=1-10 uM),CC(C)(CNc1ccc(-c2ccc(F)cc2)nn1)c1ccc(F)cc1 [[2-(4-fluorophenyl)-2-methylpropyl][6-(4-fluorophenyl)pyridazin-3-yl]amine]
10,A (A=<1 uM),COc1cccc(-c2ccc(NCC(C)(C)c3ccc(F)cc3)nn2)n1 [[2-(4-fluorophenyl)-2-methylpropyl][6-(6-methoxy(2-pyridyl))pyridazin-3-yl]amine]
11,B (B=1-10 uM),CC(C)(CNc1ccc(-c2cccc(C(=O)NCCO)c2)nn1)c1ccc(F)cc1 [[3-(6-{[2-(4-fluorophenyl)-2-methylpropyl]amino}pyridazin-3-yl)phenyl]-N-(2-hydroxyethyl)carboxamide]
12,B (B=1-10 uM),CNC(=O)c1cccc(-c2ccc(NCC(C)(C)c3ccc(F)cc3)nn2)c1 [[3-(6-{[2-(4-fluorophenyl)-2-methylpropyl]amino}pyridazin-3-yl)phenyl]-N-methylcarboxamide]
13,B (B=1-10 uM),CC(C)(CNc1ccc(-c2cccc(CO)c2)nn1)c1ccc(F)cc1 [[3-(6-{[2-(4-fluorophenyl)-2-methylpropyl]amino}pyridazin-3-yl)phenyl]methan-1-ol]
14,A (A=<1 uM),CC(C)(CNc1ccc(-c2ccc3[nH]nc(CO)c3c2)nn1)c1ccc(F)cc1 [[5-(6-{[2-(4-fluorophenyl)-2-methylpropyl]amino}pyridazin-3-yl)-1H-indazol-3-yl]methan-1-ol]

# Same assay, conditions: median AC1.4 class, procedure of Example 39
row,Mean AC1.4,Structure (SMILES)
1,A (A=<1 uM),CC(C)(CNc1ccc(-c2ccc3[nH]nc(NCCOCc4ccccc4)c3c2)nn1)c1ccc(F)cc1 [[2-(4-fluorophenyl)-2-methylpropyl][6-(3-{[2-(phenylmethoxy)ethyl]amino}(1H-indazol-5-yl))pyridazin-3-yl]amine]
2,B (B=1-10 uM),CN(C)c1n[nH]c2ccc(-c3ccc(NCC(C)(C)c4ccc(F)cc4)nn3)cc12 [[5-(6-{[2-(4-fluorophenyl)-2-methylpropyl]amino}pyridazin-3-yl)(1H-indazol-3-yl)]dimethylamine]
3,A (A=<1 uM),"Fc1cccnc1C1(CNc2ccc(-c3cccc(F)c3F)nn2)CCC1 [[6-(2,3-difluorophenyl)pyridazin-3-yl]{[(3-fluoro(2-pyridyl))cyclobutyl]methyl}amine]"
4,B (B=1-10 uM),Nc1ncccc1-c1ccc(NCC2(c3ncccc3F)CCC2)nn1 [[6-(2-amino(3-pyridyl))pyridazin-3-yl]{[(3-fluoro(2-pyridyl))cyclobutyl]methyl}amine]
